{"source": "paper PMC7551886", "about": "“Antitumour Effects of Astaxanthin and Adonixanthin on Glioblastoma” (Marine Drugs, 2020)", "key": {"U251MG cells": {"tested_on": "U251MG cells", "assay": "Cell viability (CCK-8 assay) in U251MG", "assay_type": "cell-based, human", "details": "treated for 96 h", "method": "U251MG, GL261, or U87MG cells were seeded onto 96-well plates at a density of 2 × 10^3 cells/well with DMEM supplemented with 10% FBS and then incubated for 24 h, after which the culture medium was changed to DMEM containing 10% FBS. Then, astaxanthin, adonixanthin or temozolomide (Tokyo Chemical Industry Co., Ltd., Tokyo, Japan) were added to the culture. Cell proliferation was determined using the CCK-8 assay according to the manufacturer’s instructions (Dojindo, Kumamoto, Japan). After each incubation, 10 μL of CCK-8 solution were added to each well. Plates were incubated for 3 h for 37 °C, and the absorbance was read at 450 nm with a reference wavelength of 630 nm using a Varioscan Flash 2.4 microplate reader (Thermo Fisher Scientific, Waltham, MA, USA)."}, "GL261 cells": {"tested_on": "GL261 cells", "assay": "Wound healing (cell migration) assay in GL261", "assay_type": "cell-based, mouse", "details": "GL261, 10 µM, 48 h", "method": "The cell migration assay was conducted as previously described. GL261 cells and U251 cells (2.0 × 10^4 cells per well) were plated in a 12-well plate (BD Biosciences, Tokyo, Japan) with culture medium supplemented with 10% FBS. After 24 h of incubation, the medium was changed to DMEM containing 1% FBS. After 6 h, wounds were scratched by a P1000 pipette tip and washed with phosphate-buffered saline (PBS) to eliminate cell debris. Then, fresh medium was added with 10 µM astaxanthin or adonixanthin. Pictures were taken at 48 h and these scratched areas were measured using an All-in-One Fluorescence Microscope (BZ-X710; Keyence, Osaka, Japan). The cell migration rate was measured the area of the wound before migration (S0) and after migration (S1) and calculated […]. The control group was then standardized to be 100%. Wound widths at 0 h were created within 1 to 1.5 mm and data were excluded if they were not suitable for that width."}, "Akt": {"tested_on": "Akt", "assay": "Immunoblotting, phosphorylation of Akt in GL261", "assay_type": "cell-based, mouse", "details": "GL261, 10 µM, 6 h post-treatment", "method": "(§1) GL261 cell was seeded at 2.5 × 10^4 cells per well in 24-well plates with culture medium supplemented with 10% FBS. After 24 h of incubation, the medium was changed to DMEM containing 10% FBS and 0.1%DMSO PBS, 300 μM temozolomide, 10 μM astaxanthin, or 10 μM adonixanthin was added for 6 and 48 h. Cells were lysed in a special buffer (RIPA buffer R0278; Sigma-Aldrich, St. Louis, MO, USA) with a protease inhibitor cocktail (Sigma-Aldrich), phosphatase inhibitor cocktails 2 and 3 (Sigma-Aldrich), and sample buffer (Wako, Osaka, Japan). The protein concentration was determined by comparison with a known concentration of bovine serum albumin using the BCA Protein Assay Kit (Thermo Fisher Scientific). The amount of total protein was 2 μg. […] The band intensity was […] using an Immuno Star LD (Wako). Band intensity was measured using an LAS-4000 UV mini Luminescent Image Analyzer (Fujifilm, Tokyo Japan) and Multi Gauge Version 3.0 (Fujifilm). The phosphorylation of ERK1/2, Akt, and p38 MAPK was measured by normalizing against total ERK1/2, total Akt, and total p38 MAPK. […]"}, "[1]": {"tested_on": "p38 mitogen-activated protein kinase", "assay": "Immunoblotting, phosphorylation of p38 MAPK in GL261", "assay_type": "cell-based, mouse", "details": "GL261, 10 µM, 48 h", "method": "as §1"}, "cyclin D1": {"tested_on": "cyclin D1", "assay": "Immunoblotting, cyclin D1 expression in GL261", "assay_type": "cell-based, mouse", "details": "GL261, 10 µM, 48 h", "method": "as §1"}, "NADPH oxidase 4 (Nox4)": {"tested_on": "NADPH oxidase 4 (Nox4)", "assay": "Immunoblotting, Nox4 expression in GL261", "assay_type": "cell-based, mouse", "details": "GL261, 10 µM, 6 h", "method": "as §1"}, "[2]": {"tested_on": "intracellular ROS in GL261 cells", "assay": "Reactive oxygen species assay (CM-H2DCFDA)", "assay_type": "cell-based, mouse", "details": "GL261, 1 and 10 µM, 6 h", "method": "Intracellular radical activation within GL261 cells was measured with 5-(and-6)-chloromethyl—2′,7′-dichlorodihydrofluorescein diacetate, acetyl ester (CM-H2DCFDA; Thermo Fisher Scientific, MA, USA). Six hours after treatment of temozolomide, astaxanthin, or adonixanthin, CM-H2DCFDA was added to the culture medium and incubated at 37 °C for 1 h under shading in GL261. Fluorescence was measured using a Varioscan Flash 2.4 microplate reader (Thermo Fisher Scientific, MA, USA) at 485 (excitation)-535 nm (emission). Measurements were performed 0, 30, and 60 min after the addition of CM-H2DCFDA."}}, "data": [{"smiles": "CC1=C(/C=C/C(C)=C/C=C/C(C)=C/C=C/C=C(C)/C=C/C=C(C)/C=C/C2=C(C)C(=O)[C@@H](O)CC2(C)C)C(C)(C)C[C@H](O)C1", "note": "[Adonixanthin, adonixanthin]", "values": [{"measurement": "concentration above which cell viability was suppressed", "setting": "U251MG cells", "result": "> 0.1", "unit": "µM"}, {"measurement": "suppression of cell migration", "setting": "GL261 cells", "result": "13.74 ± 4.01", "unit": "%"}, {"measurement": "phosphorylation of Akt", "setting": "Akt", "result": "decreased"}, {"measurement": "phosphorylation of p38 MAPK", "setting": "[1]", "result": "increased"}, {"measurement": "expression of cyclin D1", "setting": "cyclin D1", "result": "decreased"}, {"measurement": "expression of Nox4", "setting": "NADPH oxidase 4 (Nox4)", "result": "significantly decreased"}, {"measurement": "amount of intracellular ROS", "setting": "[2]", "result": "decreased"}]}, {"smiles": "CC1=C(/C=C/C(C)=C/C=C/C(C)=C/C=C/C=C(C)/C=C/C=C(C)/C=C/C2=C(C)C(=O)[C@@H](O)CC2(C)C)C(C)(C)C[C@H](O)C1=O", "note": "[Astaxanthin, astaxanthin]", "values": [{"measurement": "concentration above which cell viability was suppressed", "setting": "U251MG cells", "result": "more than 1 µM"}, {"measurement": "suppression of cell migration", "setting": "GL261 cells", "result": "8.84 ± 2.09", "unit": "%"}, {"measurement": "phosphorylation of Akt", "setting": "Akt", "result": "decreased"}, {"measurement": "phosphorylation of p38 MAPK", "setting": "[1]", "result": "increased"}, {"measurement": "expression of cyclin D1", "setting": "cyclin D1", "result": "decreased"}, {"measurement": "expression of Nox4", "setting": "NADPH oxidase 4 (Nox4)", "result": "no change"}, {"measurement": "amount of intracellular ROS", "setting": "[2]", "result": "decreased"}]}]}
